According to patent US11976280B2, “SMAC/Diablo inhibitors useful for treating cancer” (THE NATIONAL INSTITUTE FOR BIOTECHNOLOGY IN THE NEGEV LTD., priority 2017, dated 2024):
d = 2'-deoxy (DNA); r = 2'-OH (RNA)

How the values were obtained:
[1] = system: A549 cells-derived tumors; assay: Transmission electron microscopy of tumor ultrastructure; assay type: in vivo, mice
From the text: In si-NT-TTs, a massive amount of intracellular vesicles of different sizes and densities, such as lysosomes and large vesicles containing surfactant-accumulating lamellar bodies were seen. Such vesicles were not observed in the tumors where hSMAC/Diablo was silenced (si-hSMAC-A-TTs) (FIG. 10D, 12A).
This may be associated with cell differentiation processes. […] The large nuclei in si-NT-TTs could result from membrane fluidity and/or osmolality changes, as reflected in the modified expression of transporters (FIG. 11A, Table 4). Changes in the expression of genes associated with cell membrane, exosomes, and ER- and Golgi-related proteins (FIG. 11A, 11B) and in cell ultrastructure (FIG. 10D, 10E), are summarized in a schematic model (FIG. 12C).

[2] = system: HeLa, A549 or H358 cells; assay: Cell death analysis, PI / FITC-Annexin V staining and flow cytometry; assay type: cell-based, human; settings: cells silenced for SMAC/Diablo; no significant cell death
Procedure: Cells death was analyzed by propidium iodide (PI) staining and flow cytometer (Beckton-Dickinson, San Jose, CA) and BD CellQuest Pro software, or using acridine orange ethidium bromide staining (Abu-Hamad, S., et al., 2009. J Cell Sci, 122(Pt 11): p. 1906-1916).
Moreover, apoptosis was induced by over-expressing SMAC/Diablo or SMAC/Diablo-GFP in HeLa, A549 and H358 cells in a concentration- and time-dependent manner, again as expected (FIG. 3D-3F).

[3] = system: MDA-MB-231 cells; assay: SRB cell growth assay, MDA-MB-231; assay type: cell-based, human; settings: 100 nM
Procedure: FIGS. 5A-5G depict that si-hSMAC-A inhibited cell growth in vitro and tumor growth of breast cancer xenografts: (FIG. A) MDA-MB-231 cells were transfected with si-NT (50 nM) or si-hSMAC-A (100 nM) and analyzed for cell growth at the indicated time using the SRB method (n=3) (Control (●), si-NT (◯), si-hSMAC-A (▴); (FIG. 5B) MDA-MB-231 cells were transfected with si-NT or si-hSMAC-A and at the indicated time cells were harvested and analyzed for SMAC/Diablo levels by immunoblotting. (3-actin was used as a loading control; (FIG. 5C) MDA-MB-231 cells (3×10^6 cells/mouse) were inoculated into nude mice. Tumor volumes were monitored (using a digital caliper) and on day 18, the mice were divided into two groups (n=8 each) with each mouse in the group containing a tumor with a volume between 60 and 100 mm^3 and similar average volumes measured per group. […] (FIG. 5D) Represents photomicrograph of dissected tumors from mouse MDA-MB-231 cell xenografts treated with si-NT or si-hSMAC-A; (FIG. 5E) Bar-graph represents dissected tumors weight from MDA-MB-231 cell xenografts; calculated average tumor volumes are presented as means±SEM, ***P<0.001 (FIG. 5F, FIG. 5G) Dissected tumors were subjected to immunohistochemistry. […]
Twenty-four hours post-transfection with si-NT or si-hSMAC, cells (10,000/well) were counted and seeded in 96-well plates. […]

[4] = system: MDA-MB-231 cell xenografts; assay: MDA-MB-231 breast cancer xenograft in nude mice; assay type: in vivo; settings: 700 nM
Procedure: FIGS. 5A-5G depict that si-hSMAC-A inhibited cell growth in vitro and tumor growth of breast cancer xenografts: (FIG. A) MDA-MB-231 cells were transfected with si-NT (50 nM) or si-hSMAC-A (100 nM) and analyzed for cell growth at the indicated time using the SRB method (n=3) (Control (●), si-NT (◯), si-hSMAC-A (▴); (FIG. 5B) MDA-MB-231 cells were transfected with si-NT or si-hSMAC-A and at the indicated time cells were harvested and analyzed for SMAC/Diablo levels by immunoblotting. (3-actin was used as a loading control; (FIG. 5C) MDA-MB-231 cells (3×10^6 cells/mouse) were inoculated into nude mice. Tumor volumes were monitored (using a digital caliper) and on day 18, the mice were divided into two groups (n=8 each) with each mouse in the group containing a tumor with a volume between 60 and 100 mm^3 and similar average volumes measured per group. The two mice groups were subjected to the following treatments: Xenografts were injected with si-NT (●, 350 nM) or si-hSMAC-A (▴, 700 nM). (FIG. 5D) Represents photomicrograph of dissected tumors from mouse MDA-MB-231 cell xenografts treated with si-NT or si-hSMAC-A; (FIG. 5E) Bar-graph represents dissected tumors weight from MDA-MB-231 cell xenografts; calculated average tumor volumes are presented as means±SEM, ***P<0.001 (FIG. 5F, FIG. 5G) Dissected tumors were subjected to immunohistochemistry. […]

[5] = system: WI38 and HaCat cells; assay: SRB cell growth assay, immortalized non-cancerous cell lines; assay type: cell-based, human
Procedure: The siRNAs were synthesized by Genepharma (Suzhou, China). Cells were seeded (150,000 cells/well) on 6-well culture dishes to 40-60% confluence and transfected with 10-100 nM si-NT or si-hSMAC/Diablo using the JetPRIME transfection reagent (Illkirch, France), according to the manufacturers' instructions.
Twenty-four hours post-transfection with si-NT or si-hSMAC, cells (10,000/well) were counted and seeded in 96-well plates. After additional 48, 72 or 96 hours, the cells were washed with PBS, fixed with 10% trichloroacetic acid, and stained with SRB. SRB was extracted from the cells using 100 mM Tris base and absorbance at 510 nm was determined using an Infinite M1000 plate reader (Tecan, Männedorf, Switzerland).
The effect of the SMAC/Diablo silencing on cell growth was examined using the sulforhodamine B (SRB) assay. […] Three other siRNAs designed to target hSMAC (B to D as described hereinabove) were also found to inhibit SMAC/Diablo expression and cell growth to various degrees (FIG. 2I, 2J).

si-hSMAC-A: siRNA to human SMAC/Diablo; sense 5′AAGCGGUGUUUCUCAGAAUUGtt3′ (SEQ ID NO:20), antisense 5′AACAAUUCUGAGAAACCCGCtt3′ (SEQ ID NO:21) (sense AAGCGGUGUUUCUCAGAAUUGTT; antisense AACAAUUCUGAGAAACCCGCTT; sense: sugars from the 5' end r21 d2, backbone not given here; antisense: sugars from the 5' end r20 d2, backbone not given here)
DNA form in the nucleus ([1]; mouse, in vivo): mainly found as euchromatin | intracellular vesicles incl. lamellar bodies, TEM ([1]; mouse, in vivo): not observed | sizes of nuclei ([1]; vs si-NT-TTs): almost twice | cell death [2]: 5-10% | cell growth in vitro [3]: inhibited | tumor growth of breast cancer xenografts [4]: inhibited | cell growth of non-cancerous cell lines [5]: did not affect cell growth
